According to US20070167502A1, “Association between a heterocyclic compound and an antioxidant agent” (priority 2004, published 2007):

System: Male C57 Black 6 ob/ob mice
Assay: Change in body weight of ob/ob mice after 7 days of treatment
Type: in vivo
Conditions: intraperitoneal route once a day for 7 days, weight after 7 days of treatment
Procedure: Male C57 Black 6 ob/ob mice from 8 to 12 weeks old were used. […] After being weighed, the various compounds under test were injected by the intraperitoneal route once a day for 7 days. The compounds were injected in a solution of DMSO 5%/Solutol 15%/qsp H2O heated at 65° C. to ensure good dissolution. In addition, the solution was pre-heated before injection. The mice were weighed every day and the weight obtained after 7 days of treatment was recorded.

CCOC(Cc1ccc(OCCn2c(=O)sc3cc(C(=NO)c4ccccc4)ccc32)cc1)C(=O)O (centres unmarked) [2-ethoxy-3-{4-[2-(6-[(hydroxyimino)(phenyl)methyl]-2-oxo-1,3-benzothiazol-3(2H)-yl)ethoxy]phenyl}propanoic acid]
reduction in the weight gain: 10%

COC1=C(OC)C(=O)C(C/C=C(\C)CC/C=C(\C)CC/C=C(\C)CC/C=C(\C)CC/C=C(\C)CC/C=C(\C)CC/C=C(\C)CC/C=C(\C)CC/C=C(\C)CCC=C(C)C)=C(C)C1=O [coenzyme Q10]
reduction in the weight gain: does not reduce the weight gain
